According to patent publication US6673574B2, “Oral delivery of peptides using enzyme-cleavable membrane translocators” (Unigene Laboratories Inc., priority 2000, dated 2004):
Where two headings read alike, the source gives them in different places. Each block holds one molecule with its values, some of them ahead of it.

Assays:
[1] = Absorption from rat duodenum: intraduodenal injection, plasma concentration by competitive enzyme immunoassay; type: in vivo; conditions: for Cmax: peak plasma concentration by inspection
Experimental: Female Sprague-Dawley rats (250-275 g) (n=4 for each peptide) were anesthetized with ketamine and xylazine prior to the insertion of a cannula in the carotid artery. The cannula was fitted to a three way valve through which blood was sampled and replaced with physiological saline containing heparin. A midline incision was made in the abdominal cavity, and 0.45 mL of either sCT-gly (10 mg/mL) or OmpA-MT3-sCT-gly (10 mg/mL) in 0.5M citric acid was injected directly into the duodenum. Blood (0.5 ml) was collected before and at 5, 15, 30, 45 and 60 minutes after administration of the peptides. The blood was centrifuged, and the concentration (± SEM [standard error of the mean]) of sCT-gly or OmpA-MT3-sCT-gly in the plasma supernatant was determined by a competitive enzyme immunoassay (EIA). Peak plasma concentration (Cmax) was determined by inspection. The absolute bioavailbilty of each peptide (relative to an intravenous dose of sCT [salmon calcitonin]) was calculated from plots of the plasma concentration of each peptide as a function to time.

[2] = Blood levels of salmon calcitonin after direct injection into duodenum, ileum or colon of rats; type: in vivo; conditions: rat, other: injected directly into the duodenum, active components injected directly into duodenum
Excerpt: The acid is believed to lower the local intestinal pH (where the active agent has been released) to levels below the optimal range for many intestinal proteases and other intestinal enzymes. This decrease in pH reduces the proteolytic activity of the intestinal proteases, thus affording protection to the peptide and the membrane translocator from potential degradation. The activity of these proteases is diminished by the temporarily acidic environment provided by the invention. It is preferred that sufficient acid be provided that local intestinal pH is lowered temporarily to 5.5 or below, preferably 4.7 or below and more preferably 3.5 or below. The sodium bicarbonate test described below (in the section captioned “the pH-Lowering Agent”) is indicative of the required acid amount.

[3] = cited from earlier work
[4] = 0 min (before administration), 0.45 mL of 10 mg/mL in 0.5M citric acid into duodenum, ± SEM, n=4

- plasma concentration [1, 4]: 0.00 ng/mL
- Cmax ([1]; female, Sprague-Dawley, 4.5 mg, intraduodenal, rat, ± SEM, read-out: Cmax): 223 ± 44.8 ng/mL
- bioavailability ([1]; female, Sprague-Dawley, plasma, other: injected directly into the duodenum (intraduodenal), 4.5 mg, relative to an intravenous dose of sCT, intraduodenal, rat, ± SEM, read-out: Absolute bioavailability): 0.92 ± 0.23%
- level at 5 min ([1]; female, Sprague-Dawley, rat, plasma, 4.5 mg per animal, 5 min after intraduodenal injection, ± SEM, n=4): 201 ± 73.7 ng/mL
- level at 0.25 h ([1]; female, Sprague-Dawley, rat, plasma, 4.5 mg per animal, 15 min after intraduodenal injection, ± SEM, n=4): 116 ± 39.1 ng/mL
- level at 0.5 h ([1]; female, Sprague-Dawley, rat, plasma, 4.5 mg per animal, 30 min after intraduodenal injection, ± SEM, n=4): 223 ± 44.8 ng/mL
- level at 0.75 h ([1]; female, Sprague-Dawley, rat, plasma, 4.5 mg per animal, 45 min after intraduodenal injection, ± SEM, n=4): 151 ± 107 ng/mL
- level at 1 h ([1]; female, Sprague-Dawley, rat, plasma, 4.5 mg per animal, 60 min after intraduodenal injection, ± SEM, n=4): 179 ± 76.2 ng/mL
Molecule: CC(C)C[C@H](NC(=O)[C@H](CCCCN)NC(=O)CNC(=O)[C@H](CC(C)C)NC(=O)[C@@H](NC(=O)[C@@H]1CSSC[C@H](N)C(=O)N[C@@H](CO)C(=O)N[C@@H](CC(N)=O)C(=O)N[C@@H](CC(C)C)C(=O)N[C@@H](CO)C(=O)N[C@@H]([C@@H](C)O)C(=O)N1)C(C)C)C(=O)N[C@@H](CO)C(=O)N[C@@H](CCC(N)=O)C(=O)N[C@@H](CCC(=O)O)C(=O)N[C@@H](CC(C)C)C(=O)N[C@@H](Cc1c[nH]cn1)C(=O)N[C@@H](CCCCN)C(=O)N[C@@H](CC(C)C)C(=O)N[C@@H](CCC(N)=O)C(=O)N[C@H](C(=O)N[C@@H](Cc1ccc(O)cc1)C(=O)N1CCC[C@H]1C(=O)N[C@@H](CCCNC(=N)N)C(=O)N[C@H](C(=O)N[C@@H](CC(N)=O)C(=O)N[C@H](C(=O)NCC(=O)N[C@@H](CO)C(=O)NCC(=O)N[C@H](C(=O)N1CCC[C@H]1C(=O)NCC(=O)O)[C@@H](C)O)[C@@H](C)O)[C@@H](C)O)[C@@H](C)O [sCT-gly, CYS-SER-ASN-LEU-SER-THR-CYS-VAL-LEU-GLY-LYS-LEU-SER-GLN-GLU-LEU-HIS-LYS-LEU-GLN-THR-TYR-PRO-ARG-THR-ASN-THR-GLY-SER-GLY-THR-PRO-GLY]

- Tmax [2]: 5 to 15 min
Molecule: CC(C)C[C@H](NC(=O)[C@H](CCCCN)NC(=O)CNC(=O)[C@H](CC(C)C)NC(=O)[C@@H](NC(=O)[C@@H]1CSSC[C@H](N)C(=O)N[C@@H](CO)C(=O)N[C@@H](CC(N)=O)C(=O)N[C@@H](CC(C)C)C(=O)N[C@@H](CO)C(=O)N[C@@H]([C@@H](C)O)C(=O)N1)C(C)C)C(=O)N[C@@H](CO)C(=O)N[C@@H](CCC(N)=O)C(=O)N[C@@H](CCC(=O)O)C(=O)N[C@@H](CC(C)C)C(=O)N[C@@H](Cc1c[nH]cn1)C(=O)N[C@@H](CCCCN)C(=O)N[C@@H](CC(C)C)C(=O)N[C@@H](CCC(N)=O)C(=O)N[C@H](C(=O)N[C@@H](Cc1ccc(O)cc1)C(=O)N1CCC[C@H]1C(=O)N[C@@H](CCCNC(=N)N)C(=O)N[C@H](C(=O)N[C@@H](CC(N)=O)C(=O)N[C@H](C(=O)NCC(=O)N[C@@H](CO)C(=O)NCC(=O)N[C@H](C(=O)N1CCC[C@H]1C(N)=O)[C@@H](C)O)[C@@H](C)O)[C@@H](C)O)[C@@H](C)O [salmon calcitonin]
- blood levels more than two hours after injection ([3]; conventional dosages): no detectable blood levels
- peak level at which some patients report gastrointestinal distress ([3]; patients): ≥ 200 picograms per milliliter
- half-life ([3]; subcutaneous administration in man): 20 to 40 min
- peak serum concentration ([3]; subcutaneous, 100 International units): about 250 picograms per milliliter

B1: OmpA-MT3-sCT-gly: salmon calcitonin-Gly fused to two MTs, the unprocessed OmpA signal peptide and MTS3 (HIV TAT domain), with TRP-VAL-ALA cleavable sequence (protein)
chain: MKKTAIAIAVALAGFATVAQAYGRKKRRQRRRWVACSNLSTCVLGKLSQELHKLQTYPRTNTGSGTPG
modifications: ends and bridges not checked
- plasma concentration [1, 4]: 0.00 ng/mL
- plasma concentration ([1]; 5 min after intraduodenal injection, ± SEM, n=4): 563.07 ± 150.44 ng/mL
- plasma concentration ([1]; 15 min after intraduodenal injection, ± SEM, n=4): 1861.86 ± 713.20 ng/mL
- plasma concentration ([1]; 30 min after intraduodenal injection, ± SEM, n=4): 5603.76 ± 1749.75 ng/mL
- plasma concentration ([1]; 45 min after intraduodenal injection, ± SEM, n=4): 3879.76 ± 713.62 ng/mL
- plasma concentration ([1]; 60 min after intraduodenal injection, ± SEM, n=4): 6060.70 ± 2462.69 ng/mL
- Cmax relative to that of sCT-gly ([1]; intraduodenal, rat): more than 25 fold
- Cmax ([1]; intraduodenal, rat, ± SEM): 6060.70 ± 2462.69 ng/mL
- Absolute bioavailability ([1]; relative to an intravenous dose of sCT, intraduodenal, rat, ± SEM): 21.26 ± 6.23%
